Assay results published in ChEMBL document CHEMBL1201862, “PubChem BioAssay data set” (2004).
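Compound exposure: 48 hours, 5 concentrations, 96-well plates. GI50 = concentration required for 50% inhibition of growth.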 The source made the active and inactive calls. Cut-off read from the data, not from the text of the source: active = GI50 up to about 1.1 µM and inactive = higher.

Key:
Experiment in all cases: DTP human tumour cell line panel, 48 h
MDA-N = system: MDA-N
NCI-H460 = system: NCI-H460
OVCAR-8 = system: OVCAR-8
COLO 205 = system: COLO 205
MDA-MB-231 = system: MDA-MB-231
SNB-75 = system: SNB-75
LOX IMVI = system: LOX IMVI
SNB-19 = system: SNB-19
M14 = system: M14
UO-31 = system: UO-31
K562 = system: K562
T47D = system: T47D
DU-145 = system: DU-145
A498 = system: A498
OVCAR-4 = system: OVCAR-4
NCI-H23 = system: NCI-H23
IGROV-1 = system: IGROV-1
UACC-62 = system: UACC-62
SK-OV-3 = system: SK-OV-3
SF-268 = system: SF-268

SMILES	GI50 (MDA-N)	GI50 (NCI-H460)	GI50 (OVCAR-8)	GI50 (COLO 205)	GI50 (MDA-MB-231)	GI50 (SNB-75)	GI50 (LOX IMVI)	GI50 (SNB-19)	GI50 (M14)	GI50 (UO-31)	GI50 (K562)	GI50 (T47D)	GI50 (DU-145)	GI50 (A498)	GI50 (OVCAR-4)	GI50 (NCI-H23)	GI50 (IGROV-1)	GI50 (UACC-62)	GI50 (SK-OV-3)	GI50 (SF-268)
Cn1c2ccccc2c(=O)c2c(O)cc3c(c21)CC(C1(C)CO1)O3 (stereo not given)	1.38 µM (inactive)	3.29 µM (inactive)	0.966 µM (active)	6.1 µM (inactive)	2.03 µM (inactive)	7.28 µM (inactive)	< 0.0111 µM (active)	10.4 µM (inactive)	1.51 µM (inactive)	1.42 µM (inactive)	0.26 µM (active)	11.5 µM (inactive)	10.7 µM (inactive)	11.2 µM (inactive)	8.83 µM (inactive)	2.02 µM (inactive)	5.87 µM (inactive)	2.16 µM (inactive)	5.53 µM (inactive)	0.942 µM (active)
Cc1c(C)c(S(=O)(=O)N(CCCN)OCCCN)c(C)c2c1OC(C)(C)C2	19 µM (inactive)	36.8 µM (inactive)	80.5 µM (inactive)	17.1 µM (inactive)	14.8 µM (inactive)	17.3 µM (inactive)	19.6 µM (inactive)	15.4 µM (inactive)	18.1 µM (inactive)	33.4 µM (inactive)	35 µM (inactive)	32.6 µM (inactive)	30.6 µM (inactive)	18.8 µM (inactive)	30.7 µM (inactive)	29.8 µM (inactive)	22.9 µM (inactive)	51.4 µM (inactive)	39.4 µM (inactive)	27.6 µM (inactive)
O=[N+]([O-])c1ccc(C2CC(c3ccccc3Cl)=Nc3ccccc3[S+]2[O-])cc1 (stereo not given)	9.51 µM (inactive)	4.27 µM (inactive)	2.87 µM (inactive)	7.69 µM (inactive)	2.29 µM (inactive)	5.55 µM (inactive)	2.07 µM (inactive)	3.63 µM (inactive)	5.71 µM (inactive)	2.06 µM (inactive)	1.37 µM (inactive)	12.8 µM (inactive)	15.5 µM (inactive)	2.34 µM (inactive)	2.31 µM (inactive)	4.13 µM (inactive)	2.77 µM (inactive)	2.69 µM (inactive)	19.8 µM (inactive)	8.83 µM (inactive)
